This data set can be described thus: Gravimetric vapour sorption (GVS) / moisture sorption. Particulars: at 95% RH; 25° C. The format is physicochemical. As to the method:
Gravimetric Vapour Sorption (GVS) Analysis
Measurements are performed on a multi sample instrument SPS-100n (Projekt Messtechnik, Ulm, Germany) operated in stepping mode at 25° C.

`O=C(N[C@H]1CCN(CC2CC2)C[C@@H]1C(=O)NC1(c2ncccn2)CC1)c1cc(-c2ccc(F)cc2F)on1` [Example 2, (3S,4S)-1-Cyclopropylmethyl-4-{[5-(2,4-difluoro-phenyl)-isoxazole-3-carbonyl]-amino}-piperidine-3-carboxylic acid (1-pyrimidin-2-yl-cyclopropyl)-amide in Crystalline Form 2]: the Moisture sorption result is listed as “Sorption of 6.9% at 95% RH”.

Values taken from patent US11339148B2, “Crystalline forms of the CXCR7 receptor antagonist (3S,4S)-1-Cyclopropylmethyl-4-{[5-(2,4-difluoro-phenyl)-isoxazole-3-carbonyl]-amino}-piperidine-3-carboxylic acid (1-pyrimidin-2-yl-cyclopropyl)-amide” (IDORSIA PHARMACEUTICALS LTD., priority 2018, dated 2022).
